These results are taken from US20230113802A1, “COMPOSITION AND METHOD TO PREPARE LONG-ACTING INJECTABLE SUSPENSION CONTAINING MULTIPLE CANCER DRUGS” (University of Washington, priority 2020, published 2023).

Each structure is given as a SMILES string. Where two headings read alike, the source gives them in different places. Marks after values point to notes of the source that are not given here.

Series [1] can be described thus: Mechanism-based pharmacokinetic modeling (MBPK) of DcNP associated and dissociated GT. On the set-up: species or system mice. As to conditions: for V, DcNP Dissociated Parameter: fitted to CrEL data. From the text:
Briefly, the model adopted here for GT is composed of two sub-models representing DcNP-associated drug and dissociated drug species. Each sub-model has a central compartment and a peripheral compartment. The observed plasma concentration is the sum of DcNP-associated and dissociated species since they cannot be measured separately. […] These parameters were then fixed and the linked sub-models were fitted to the observed total concentrations for G and T obtained after injection of the DcNP-dose. The model reasonably assumed that the pharmacokinetics of drugs released from particles will be the same as that of the free-drug (CrEL) control. It was assumed that G and T are released from the particle at independent rates (k1,3) in the central compartment and only dissociated drugs are subject to clearance from the system (k0,1). […] The peripheral compartment features purely drug exchange between plasma and a group of slowly equilibrating tissues (k4,3, k3,4). In other words, the DcNP-associated drug is cleared only via its release from the particles in the central compartment. […] MBPK modeling and parameter estimations were performed using SAAM II v2.3.
To further understand the effect of DcNP on the pharmacokinetic behavior of GT, a mechanism-based pharmacokinetic model (MBPK) was used to simulate the time course of DcNP-associated and dissociated drugs in plasma. The MBPK model adapted for GT-DcNPs is based on a validated MBPK model developed for long-acting HIV drug combination nanoparticles tested in non-human primates. Experimentally, the total drug concentrations in plasma (i.e., DcNP-associated plus dissociated) can be measured, but DcNP-associated and dissociated drugs could not be distinguished. […] The MBPK model presented in FIG. 4 utilizes data from both DcNP and CrEL control formulation treated animals to estimate plasma concentrations of DcNP-associated and dissociated drug species over time and their respective time-averaged fractions in vivo. After intravenous administration as a DcNP, GT can theoretically exist in at least two species: DcNP-associated drug and dissociated drug. The latter can be reasonably assumed to distribute and be cleared as free G and T after administration of CrEL control formulation.
Individual distribution, metabolism and elimination of G and T are well characterized. […] T is metabolized in the liver primarily by CYP3A4 and CYP2C8 with subsequent excretion of metabolites into the bile. In this model, the k0,1 term represents the aggregate elimination processes of G and T through their independent described pathways. A peripheral compartment for both G and T was added and distribution was parameterized with the k1,2 and k2,1 terms. […] With these assumptions in place, the k1,3 term was set to link the two sub-models and represent the release mechanism of drug from DcNP into the central compartment. The DcNP associated species of G and T was then parameterized with the k4,3 and k3,4 to account for distribution.

For series [2] the following is noted: plasma concentration above which G tri-phosphate levels no longer increase; patients with leukemia; cited from earlier work.
The next series deals with HL-60 cells. As to the kind of experiment: AlamarBlue cell growth inhibition, HL-60. The series is classed as cell-based. The settings on record: Homo sapiens; for IC50: 120 h, HL-60, five days; for EC50: HL-60, 120 h, HL60 (Bcl-2 +, BTK +), 5 days, read-out: Inhibitory effects (EC50). How it is done: K-562 cells (human leukemia) were purchased from ATCC (Manassas, USA). Additional human leukemic cell lines, MOLT-4 and HL-60, were a generous gift from Carrie Cummings at Fred Hutchinson Cancer Research Center (Seattle, USA). All cells were cultured in Gibco RPMI medium 1640 with Gibco 1% 100×Antibiotic-Antimycotic (Thermo Fisher Scientific, Waltham, USA) and 10% fetal bovine serum. Cells were selected for their different protein expression levels of Bruton's Tyrosine Kinase (BTK) and B Cell Lymphoma 2 (Bcl-2); HL-60 cells express both BTK and Bcl-2, while K-562 and MOLT-4 cells only express BTK and Bcl-2, respectively.
Each cell line was seeded separately into Costar® Black 96-well Assay Plates (Corning USA). Within 1 hr, varying concentrations of individual free drug (ABT-199 or BGB-3111), a combination of both free drugs (w/w 1:1), or a combination of drugs within DcNP's were added to the cells. Following a 5-day incubation, growth of treated cells was compared to untreated cells, quantified using an AlamarBlue Cell Viability Assay (Thermo Fisher Scientific, Waltham, USA) with a PerkinElmer 1420 Multilabel Counter plate reader. Prism graphing software (GraphPad) was used to analyze the absorbance data and to assess relative cell growth.
The effects of DcNP formulation on the effectiveness of ABT-199 and BGB-3111 to inhibit cells that express Bcl-2 and BTK targets is shown in Table 6. Three immortalized human cell lines were selected based on their expression of Bcl-2 (B-cell lymphoma 2; target of venetoclax) and BTK (Bruton's tyrosine kinase; target of zanubrutinib). Cell lines were seeded in 96-well plates at 75,000 cells per well. In separate sets of wells, venetoclax and zanubrutinib were incubated with the cells for 5 days individually as free drug, together as free drug, and together as the drug combination nanoformulation. An AlamarBlue assay was performed to determine relative inhibition of cell growth due to drug presence.
(The colour change of resazurin is a common sign of viable cells or microbes.)

The test system of the next series is K-562 cells. The series can be described thus: Leukemic cell uptake of free versus DcNP-associated drug, K-562. The class given is cell-based, human. How it is done:
FIGS. 13A-13D are a series of graphs showing the intracellular drug concentrations following incubation with free or DcNP-bound drug. Three leukemic cell lines were incubated with either free or DcNP-bound drug over four hours, and intracellular drug concentration was measured via LC-MS/MS. Both free drugs show relatively little drug uptake compared to the DcNP formulation. Free drug concentrations are roughly a quarter of the DcNP drug concentrations.
To quantify drug concentrations (both DcNP-bound and free drug), an extraction protocol was established to quantify venetoclax and zanubrutinib. In short, drug was solubilized by diluting the sample into ethyl acetate, liberating it from either the DcNP lipid matrix, mouse plasma, or both. Following centrifugation to remove organic material, the samples were dried with nitrogen gas, reconstituted in acetonitrile, and loaded onto an LC-MS/MS. Drug concentrations were quantified by comparing sample data with standard curves prepared from untreated mouse plasma spiked with known amounts of drug.
Separations were carried out on a Synergi column (100×2.0 mm) (Phenomenex, Torrance, USA). A C8 guard column (4.0×2.0 mm) was used (Phenomenex, USA). The separations were done under ambient temperature, and the flow rate was set to 0.55 ml/min. The mobile phase for the separations consisted of buffers A (water with 20 mM ammonium acetate) and B (acetonitrile). The single mobile phase ran for five minutes, and it consisted of 25% buffer A and 75% buffer B.
HL-60 cells were cultured, counted, and aliquoted into multiple 1.5 mL Eppendorf tubes. A free drug solution of ABT-199 and BGB-3111 (1:1 w/w) was added to half of the tubes, while a DcNP solution of identical drug concentrations was added to the second half of tubes. The cells in the tubes were then allowed to incubate normally. At preselected time points, one incubation tube from each group was removed from the incubator, and the cells inside were washed twice with media to remove external drug and DcNP's. Cells were then lysed with acetonitrile, and drug concentrations were quantified according to the aforementioned extraction and LC-MS/MS protocol.

[3] abbreviates: model derived, single IV dose in GT DcNP dosage form.
Where [4] appears, read: model derived, single IV dose in GT DcNP dosage form, listed as G.
[5] abbreviates: K-562, incubation with free drug.

On to `Nc1ccn([C@@H]2O[C@H](CO)[C@@H](O)C2(F)F)c(=O)n1` [Gemcitabine, 4-amino-1-[(2R,4R,5R)-3,3-difluoro-4-hydroxy-5-(hydroxymethyl)oxolan-2-yl]pyrimidin-2-one], for which the “decrease of estimated volume of central compartment, DcNP compared to CrEL” value in series [1] is on record as 4.6 times. Also, the “release parameter (k1,3) of G lower than T” value in series [1] (GT DcNP) is 9.5 fold. Further, in series [1] (setting [3]), the “K0,1, DcNP Dissociated Parameter” value was 3.9 ± 0.9 h⁻¹; the “K1,2, DcNP Dissociated Parameter” value amounted to 0.5 ± 0.2 h⁻¹; the “K1,3 (release parameter), DcNP Associated Parameter” value turned out to be 0.2 ± 0.02 h⁻¹; the “K2,1, DcNP Dissociated Parameter” value stood at 0.2 ± 0.1 h⁻¹. Besides, in series [1] (setting [3]), the “K3,4, DcNP Associated Parameter” value is 0.6 ± 0.1 h⁻¹; the “K4,3, DcNP Associated Parameter” value was found to be 1.8 ± 0.5 h⁻¹; the “VDcNP, DcNP Associated Parameter” value was 5.2 ± 0.6 mL; the “V, DcNP Dissociated Parameter” value is listed as 24 ± 12 mL. In series [1] (setting [4]), the “V, DcNP Dissociated Parameter” value came out at 24 mL; the “K1,3 (release parameter), DcNP Associated Parameter” value came out at 0.2 h⁻¹; the “VDcNP, DcNP Associated Parameter” value is 5.2 mL. Moreover, the “target concentration in plasma” value in series [2] was 3 µg/mL.
`CC(=O)O[C@H]1C(=O)[C@@]2(C)[C@H]([C@H](OC(=O)c3ccccc3)[C@]3(O)C[C@H](OC(=O)[C@H](O)[C@@H](NC(=O)c4ccccc4)c4ccccc4)C(C)=C1C3(C)C)[C@]1(OC(C)=O)CO[C@@H]1C[C@@H]2O` [Paclitaxel, [(1S,2S,3R,4S,7R,9S,10S,12R,15S)-4,12-diacetyloxy-15-[(2R,3S)-3-benzamido-2-hydroxy-3-phenylpropanoyl]oxy-1,9-dihydroxy-10,14,17,17-tetramethyl-11-oxo-6-oxatetracyclo[11.3.1.0^3,10.0^4,7]heptadec-13-en-2-yl] benzoate]: the “VDcNP, DcNP Associated Parameter” value in series [1] (setting [3]) is reported as 0.8^a mL.
Consider `CC1(C)CCC(CN2CCN(c3ccc(C(=O)NS(=O)(=O)c4ccc(NCC5CCOCC5)c([N+](=O)[O-])c4)c(Oc4cnc5[nH]ccc5c4)c3)CC2)=C(c2ccc(Cl)cc2)C1` [Venetoclax, 4-[4-[[2-(4-chlorophenyl)-4,4-dimethylcyclohexen-1-yl]methyl]piperazin-1-yl]-N-[3-nitro-4-(oxan-4-ylmethylamino)phenyl]sulfonyl-2-(1H-pyrrolo[2,3-b]pyridin-5-yloxy)benzamide], for which, in the series on HL-60 cells (read-out: IC50), the IC50 was 0.00192 µg/mL. For the same compound, the EC50 with HL-60 cells was 0.0019 µg/mL. The “peak intracellular drug concentration” value worked out at 647 ng/million cells with K-562 cells (K-562, incubation with DcNP's) and 192 ng/million cells with K-562 cells (setting [5]).
For `C=CC(=O)N1CCC([C@@H]2CCNc3c(C(N)=O)c(-c4ccc(Oc5ccccc5)cc4)nn32)CC1` [Zanubrutinib, (7S)-2-(4-phenoxyphenyl)-7-(1-prop-2-enoylpiperidin-4-yl)-4,5,6,7-tetrahydropyrazolo[1,5-a]pyrimidine-3-carboxamide], in the series with HL-60 cells (read-out: IC50 (sensitivity)), the IC50 is 10.3 µg/mL. Besides, the EC50 in the series on HL-60 cells stood at 10 µg/mL. The “peak intracellular drug concentration” value with K-562 cells (K-562, incubation with DcNP's) is given as 647 ng/million cells; in the series with K-562 cells (setting [5]) it was 109 ng/million cells.

The IC50 is the midpoint of a concentration-inhibition curve. The term EC50 denotes the concentration at which the effect is half-maximal.
